Data on 32 molecules can be found in patent US20240246937A1 (MERCK SHARP & DOHME LLC, priority 2021, published 2024).

One may read the EC50 as the concentration at which the effect is half-maximal.

For this test, the target named is recombinant IL4I1 (Homo sapiens (Human), UniProt Q96RQ9). Put plainly: IL4I1 Enzymatic Assay (Amplex Red/HRP coupled fluorescence detection of H2O2). The class given is biochemical. Particulars: 240 min; recombinant IL4I1, four-hour pre-incubation with compound. The protocol: Interleukin 4 inducible protein 1 (IL4I1) is an L-amino oxidase that catalyzes the oxidation of aromatic residues (Phe, Trp and Tyr): L-amino acid+H2O+O2→2-oxo acid+NH3+H2O2. Equal molar of H2O2 and the corresponding alpha-ketoacid are produced when IL4I1 and substrate are added. In this assay, the hydrogen peroxide generated by IL4I1 is then detected through a coupled reaction with Amplex® Red (10-acetyl-3,7-dihydroxyphenoxazine) and horseradish peroxidase (HRP) to produce resorufin product that could be detected in the form of fluorescence signals. The assessment of the inhibitory effect of small molecules (EC50) on IL4I1 is measured by the effectiveness of the compounds to inhibit the production of H2O2.
Sequence of recombinant IL4I1 (Q96RQ9 22-567): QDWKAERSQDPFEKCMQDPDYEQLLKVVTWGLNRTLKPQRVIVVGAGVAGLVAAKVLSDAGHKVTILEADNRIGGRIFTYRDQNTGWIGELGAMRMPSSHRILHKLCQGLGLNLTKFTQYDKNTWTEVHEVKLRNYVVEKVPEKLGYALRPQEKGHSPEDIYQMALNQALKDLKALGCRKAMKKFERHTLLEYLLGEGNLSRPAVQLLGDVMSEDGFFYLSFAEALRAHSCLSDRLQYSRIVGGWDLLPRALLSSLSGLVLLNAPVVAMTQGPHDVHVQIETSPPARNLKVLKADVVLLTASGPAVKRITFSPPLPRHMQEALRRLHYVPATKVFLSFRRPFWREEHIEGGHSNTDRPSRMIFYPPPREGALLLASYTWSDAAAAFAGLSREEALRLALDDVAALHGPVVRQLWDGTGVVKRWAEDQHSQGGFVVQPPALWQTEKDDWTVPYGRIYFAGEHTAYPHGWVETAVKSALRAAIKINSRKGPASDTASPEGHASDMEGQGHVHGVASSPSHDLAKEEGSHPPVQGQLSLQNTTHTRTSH
Using this assay, the potency (EC50) of each compound was determined from a ten-point (1:3 serial dilution) titration curve using the following outlined procedure. To each well of a black flat-bottom Greiner (Cat #781076) 384 well-plate, 25 nL of compound (0.1% DMSO in final assay volume of 25 μL) was dispensed, followed by the addition of 12.5 μL of 1× assay buffer (50 mM Hepes 7.0 and 0.005% Tween20 (Sigma, Cat #P8341; low peroxide grade)) containing 2 nM of recombinant IL4I1 (R&D Systems, Cat #5684-AO-020). Plates were placed in an ambient temperature humidified chamber for a four-hour pre-incubation with compound. Subsequently, each reaction was initiated by the addition of 12.5 μL 1× assay buffer containing 2 mM of each aromatic amino acids (Phe/Tyr/Trp), 0.1 mM Amplex Red and 2 U/mL of HRP. The final reaction in each well of 25 μL consisted of 1 nM of IL4I1, 1 mM of each residues (Phe, Tyr and Trp), 0.05 mM Amplex Red and 1 U/mL of HRP. It should be noted that the concentrations of Amplex Red and HRP used here were in excess such that the conversion of H2O2 to resorufin product occurred instantaneously and was non-rate limiting. Reactions were allowed to proceed for 120 minutes followed by fluorescence readout on a Spectramax with the following set parameters: 544 nm excitation/590 nm emission, 570 nm cutoff (EnVision is an alternative reader). Dose-response curves were generated by plotting percent effect (% product conversion; Y-axis) vs. Log10 compound concentrations (X-axis). EC50 values were calculated using a non-linear regression, four-parameters sigmoidal dose-response model and are shown in Potency Table 1.
As to `O=C1C(=O)N(C2CCCC2)CCN1Cc1ccc(-c2cncs2)nn1` [Example 11, 1-cyclopentyl-4-((6-(thiazol-5-yl)pyridazin-3-yl)methyl)piperazine-2,3-dione], the EC50 is 16 nM.
For `O=C1C(=O)N(C2CCC2)CCN1Cc1ccc(-c2ccccc2)nn1` [Example 12, 1-cyclobutyl-4-((6-phenylpyridazin-3-yl)methyl)piperazine-2,3-dione], the concentration for a half-maximal effect (EC50) turned out to be 8 nM.
The same measure for `O=C1C(=O)N(C2CCCC2)CCN1Cc1nnc(-c2ccccc2F)s1` [Example 13, 1-cyclopentyl-4-((5-(2-fluorophenyl)-1,3,4-thiadiazol-2-yl)methyl)piperazine-2,3-dione]: 8 nM; for `O=C1C(=O)N(C2CCCC2)CCN1Cc1ccc(-c2cccc(F)c2)nn1` [Example 14, 1-cyclopentyl-4-((6-(3-fluorophenyl)pyridazin-3-yl)methyl)piperazine-2,3-dione]: 6 nM; for `O=C1C(=O)N(C2CCCC2)CCN1Cc1ccc(-c2cn[nH]c2)nn1` [Example 15, 1-((6-(1H-pyrazol-4-yl)pyridazin-3-yl)methyl)-4-cyclopentylpiperazine-2,3-dione]: 44 nM.
The same measure for `O=C1C(=O)N(C2CCCC2)CCN1Cc1ncc(-c2cn[nH]c2)cc1F` [Example 16, 1-cyclopentyl-4-((3-fluoro-5-(1H-pyrazol-4-yl)pyridin-2-yl)methyl)piperazine-2,3-dione]: 16 nM; for `O=C1C(=O)N(C2CCCC2)CCN1Cc1ccc(-c2cncs2)nc1` [Example 17, 1-cyclopentyl-4-((6-(thiazol-5-yl)pyridin-3-yl)methyl)piperazine-2,3-dione]: 7 nM.
Take `O=C1C(=O)N(C2CCCC2)CCN1Cc1ccc(-c2cnco2)nc1` [Example 18, 1-cyclopentyl-4-((6-(oxazol-5-yl)pyridin-3-yl)methyl)piperazine-2,3-dione]: the EC50 came to 41 nM.
The same measure for `O=C1C(=O)N(C2CCCC2)CCN1Cc1ccc(-c2cncs2)cc1F` [Example 19, 1-cyclopentyl-4-(2-fluoro-4-(thiazol-5-yl)benzyl)piperazine-2,3-dione]: 7 nM.
For `O=C1C(=O)N(C2CCC2)CCN1Cc1ccc(-c2cccc(F)c2)nn1` [Example 20, 1-cyclobutyl-4-((6-(3-fluorophenyl)pyridazin-3-yl)methyl)piperazine-2,3-dione] the value was 5 nM.
In the case of `O=C1C(=O)N(C2CCC2)CCN1Cc1ccc(-c2cccc(F)c2F)nn1` [Example 21, 1-cyclobutyl-4-((6-(2,3-difluorophenyl)pyridazin-3-yl)methyl)piperazine-2,3-dione], the concentration for a half-maximal effect (EC50) was 14 nM.
The same measure for `O=C1C(=O)N(C2CCC2)CCN1Cc1ccc(-c2cc(F)cc(F)c2)nn1` [Example 22, 1-cyclobutyl-4-((6-(3,5-difluorophenyl)pyridazin-3-yl)methyl)piperazine-2,3-dione]: 22 nM; for `O=C1C(=O)N(C2CCCC2)CCN1Cc1ccc(-c2cn[nH]c2)cc1F` [Example 23, 1-cyclopentyl-4-(2-fluoro-4-(1H-pyrazol-4-yl)benzyl)piperazine-2,3-dione]: 21 nM.
For `O=C1C(=O)N(C2CCCC2)CCN1Cc1ccc(-c2cn[nH]c2)nc1` [Example 24, 1-((6-(1H-pyrazol-4-yl)pyridin-3-yl)methyl)-4-cyclopentylpiperazine-2,3-dione] the value was 30 nM; for `O=C1C(=O)N(C2CCC2)CCN1Cc1ccc(-c2cn[nH]c2)nn1` [Example 25, 1-((6-(1H-pyrazol-4-yl)pyridazin-3-yl)methyl)-4-cyclobutylpiperazine-2,3-dione], 21 nM; for `O=C1C(=O)N(C2CCC2)CCN1Cc1ccc(-c2ccccc2)cn1` [Example 26, 1-cyclobutyl-4-((5-phenylpyridin-2-yl)methyl)piperazine-2,3-dione], 6 nM.
The same measure for `O=C1C(=O)N(C2CCC2)CCN1Cc1nnc(-c2cccc(F)c2)s1` [Example 27, 1-cyclobutyl-4-((5-(3-fluorophenyl)-1,3,4-thiadiazol-2-yl)methyl)piperazine-2,3-dione]: 5 nM; for `O=c1c(=O)n(C2CCC2)ccn1Cc1nnc(-c2cccc(F)c2)s1` [Example 28, 1-cyclobutyl-4-((5-(3-fluorophenyl)-1,3,4-thiadiazol-2-yl)methyl)-1,4-dihydropyrazine-2,3-dione]: 8 nM; for `O=C1C(=O)N(C2CCC2)CCN1Cc1nnc(-c2ccc(F)cc2)s1` [Example 29, 1-cyclobutyl-4-((5-(4-fluorophenyl)-1,3,4-thiadiazol-2-yl)methyl)piperazine-2,3-dione]: 9 nM.
Consider `O=c1c(=O)n(C2CCC2)ccn1Cc1nnc(-c2ccc(F)cc2)s1` [Example 30, 1-cyclobutyl-4-((5-(4-fluorophenyl)-1,3,4-thiadiazol-2-yl)methyl)-1,4-dihydropyrazine-2,3-dione], for which the EC50 was 8 nM.
`O=C1C(=O)N(C23CC(C2)C3)CCN1Cc1nnc(-c2ccccc2F)s1` [Example 31, 1-(bicyclo[1.1.1]pentan-1-yl)-4-((5-(2-fluorophenyl)-1,3,4-thiadiazol-2-yl)methyl)piperazine-2,3-dione]: the half-maximal effective concentration (EC50) came to 6 nM.
The same measure for `O=C1C(=O)N(C23CC(C2)C3)CCN1Cc1nnc(-c2ccc(F)cc2)s1` [Example 32, 1-(bicyclo[1.1.1]pentan-1-yl)-4-((5-(4-fluorophenyl)-1,3,4-thiadiazol-2-yl)methyl)piperazine-2,3-dione]: 5 nM.
Consider `O=C1C(=O)N(C2CCC2)CCN1Cc1nnc(-c2ccccc2F)s1` [Example 33, 1-cyclobutyl-4-((5-(2-fluorophenyl)-1,3,4-thiadiazol-2-yl)methyl)piperazine-2,3-dione], for which the 50% effective concentration (EC50) came out at 8 nM.
For `O=c1c(=O)n(C2CCC2)ccn1Cc1nnc(-c2ccccc2F)s1` [Example 34, 1-cyclobutyl-4-((5-(2-fluorophenyl)-1,3,4-thiadiazol-2-yl)methyl)-1,4-dihydropyrazine-2,3-dione] the value was 34 nM; for `O=c1c(=O)n(C2CCCC2)ccn1Cc1nnc(-c2ccc(F)cc2)s1` [Example 35, 1-cyclopentyl-4-((5-(4-fluorophenyl)-1,3,4-thiadiazol-2-yl)methyl)-1,4-dihydropyrazine-2,3-dione], 3 nM.
The same measure for `O=c1c(=O)n(C23CC(C2)C3)ccn1Cc1nnc(-c2ccc(F)cc2)s1` [Example 36, 1-(bicyclo[1.1.1]pentan-1-yl)-4-((5-(4-fluorophenyl)-1,3,4-thiadiazol-2-yl)methyl)-1,4-dihydropyrazine-2,3-dione]: 6 nM; for `O=C1C(=O)N(C2CCCC2)CCN1Cc1ccc(-c2cccnc2)nn1` [Example 37, 1-cyclopentyl-4-((6-(pyridin-3-yl)pyridazin-3-yl)methyl)piperazine-2,3-dione]: 18 nM.
On to `O=C1C(=O)N(C23CC(C2)C3)CCN1Cc1ccc(-c2ccccc2)nn1` [Example 38, 1-(bicyclo[1.1.1]pentan-1-yl)-4-((6-phenylpyridazin-3-yl)methyl)piperazine-2,3-dione], for which the EC50 was 23 nM.
For the molecule `O=c1c(=O)n([C@H]2C[C@H]3C[C@H]3C2)ccn1Cc1nnc(-c2ccccc2)s1` [Example 39, 1-((cis)-bicyclo[3.1.0]hexan-3-yl)-4-((5-phenyl-1,3,4-thiadiazol-2-yl)methyl)-1,4-dihydropyrazine-2,3-dione], the half-maximal effective concentration (EC50) is 3 nM.
For `O=C1C(=O)N(C2CC3CC3C2)CCN1Cc1nnc(-c2ccc(F)cc2)s1` (stereo not drawn) [Example 40, 1-((cis)-bicyclo[3.1.0]hexan-3-yl)-4-((5-(4-fluorophenyl)-1,3,4-thiadiazol-2-yl)methyl)piperazine-2,3-dione], the EC50 amounted to 4 nM.
The same measure for `O=c1c(=O)n([C@H]2C[C@H]3C[C@H]3C2)ccn1Cc1nnc(-c2ccc(F)cc2)s1` [Example 41, 1-((cis)-bicyclo[3.1.0]hexan-3-yl)-4-((5-(4-fluorophenyl)-1,3,4-thiadiazol-2-yl)methyl)-1,4-dihydropyrazine-2,3-dione]: 2 nM.
The same measure for `O=C1C(=O)N([C@H]2C[C@H]3C[C@H]3C2)CCN1Cc1nnc(-c2cccc(F)c2)s1` [Example 42, 1-((cis)-bicyclo[3.1.0]hexan-3-yl)-4-((5-(3-fluorophenyl)-1,3,4-thiadiazol-2-yl)methyl)piperazine-2,3-dione]: 5 nM.
